Here are results for 2 compounds from US6686393B1, “Pharmaceutical compositions having antiviral activity against human cytomegalovirus” (Murdock International Corporation, priority 1990, dated 2004).

Data set [1] concerns human cytomegalovirus (HCMV), strain AD-169. Nature of the data set: Antiviral test (plaque reduction) versus HCMV, strain AD-169, in MRC-5 cells. Format: cell-based. The note with it: for Percent Inhibition of Plaque Numbers (Compared to Virus Controls): Example 2.
In data set [2] the test system is HCMV, strain C8805-37 (DHPG-resistant). The data set can be described thus: microbe, parasite or virus in culture. Format: cell-based, human cytomegalovirus.
For the next data set, the system named is HCMV, strain AD-169. Nature of the data set: Virucidal test versus HCMV, strain AD-169. Format: cell-based, human cytomegalovirus. The note with it: in words.
The test system of data set [3] is human cytomegalovirus (HCMV) strain AD-169. The data set can be described thus: Antiviral effect of different exposure times, HCMV strain AD-169 (plaque reduction). In kind it is cell-based.
Setting [4] is: Example 3, cells exposed 4 days.
Setting [5] is: Table 9 summary, two values = two experiments.
Where [6] appears, read: Table 10 summary, DHPG resistant HCMV test.
[7] abbreviates: Human betaherpesvirus 5, MRC5, read-out: Percent Inhibition Compared to Controls.

Values joined by “and” are separate entries in the source; they are usually repeats but may differ in a detail not shown here. Equal values may be shown once. “Also recorded” adds a separate entry of the source. Read-outs that look alike come from different tables or passages of the source.

Take `Cc1cc(O)c2c(c1)C(C1c3cc(C)cc(O)c3C(=O)c3c(O)cc(O)cc31)c1cc(O)cc(O)c1C2=O` (stereo not shown) [Emodin Bianthrone (mixed), emodin bianthrone]: the “Percent Inhibition of Plaque Numbers (Compared to Virus Controls)” value in data set [1] (0.01 μg/ml) is on record as 0%; in data set [1] (0.032 μg/ml), 0%; in data set [1] (0.1 μg/ml), 0%; in data set [1] (0.32 μg/ml) it was 0%; in data set [1] (1.0 μg/ml), 100%; in data set [1] (3.2 μg/ml) it was “toxic”. The “Percent Inhibition of Plaque Numbers (Compared to Virus Controls)” value in data set [1] (10 μg/ml, ethanol stock (protohypericin in DMSO), cells exposed 6 or more days) is “toxic”. Further, the “Activity in initial screening against HCMV in vitro” value in data set [1] (initial screening, in words) is given as “active”. Also, the “Activity against HCMV” value in data set [1] (statement in words on the plaque reduction results) was “show activity; also recorded: good biological activity”. Also, in data set [2], the “Activity against DHPG resistant HCMV strain” value is reported as “retain essentially the same activity”. Besides, the “Virucidal activity against HCMV” value in the data set on HCMV, strain AD-169 is “negligible virucidal activity”. For the same compound, the Plaque reduction in data set [3] (4 hour exposure to the cells) was about 60%. Further, the “Exposure time at which complete inhibition of plaques is seen” value in data set [3] (concentration chosen to cause 100% plaque reduction on full exposure) was determined as 6 h. The Antiviral effect entry in data set [3] (only 2 hours of exposure) is listed as “no effect”. The CD50 in the data set with MRC-5 cells (Example 2, cells exposed 6 or more days) was 1.1 µg/mL; in the data set on MRC-5 cells (setting [4]) it was 1.8 µg/mL; with MRC-5 cells (setting [5]), 1.1 µg/mL; with MRC-5 cells (setting [6]), 1.8 µg/mL.
`O=C(O)c1cc(O)c2c(c1)C(=O)c1cccc(O)c1C2=O` [Rhein, rhein]: the inhibition at 3.2 µg/mL in data set [1] (Human betaherpesvirus 5, AD169, MRC5, read-out: % Reduction) came to 100%; in data set [2] (setting [7]), 100%. For the same compound, the inhibition at 10 µg/mL in data set [2] (Human betaherpesvirus 5, MRC5, 96 h, read-out: Percent Inhibition Compared to Controls) was determined as 100%. In data set [2] (setting [7]), the inhibition at 0.01 µg/mL was 0%. For the same compound, the inhibition at 0.032 µg/mL in data set [2] (setting [7]) came to 0%. Besides, the inhibition at 0.1 µg/mL in data set [2] (setting [7]) was 38%. The inhibition at 0.32 µg/mL in data set [2] (setting [7]) was found to be 0%. In addition, the inhibition at 1 µg/mL in data set [2] (setting [7]) was determined as 49%. Moreover, the CD50 in the data set on MRC-5 cells (setting [4]) is over 10 µg/mL; in the data set with MRC-5 cells (Example 5) it was 3.4 µg/mL; in the data set with MRC-5 cells (Example 7), 2.9 µg/mL; in the data set on MRC-5 cells (setting [5]) it was 3.4 µg/mL and 2.9 µg/mL; in the data set on MRC-5 cells (setting [6]) it was over 10 µg/mL.
